In patent US4025630A, “Anesthesia methods using benzopyrans and esters thereof as pre-anesthesia medication” (Abbott Laboratories, priority 1974, dated 1977):
Counter-ions that a name gives are not always drawn.

What was measured:
mice [1] = test: Activity of benzopyrans as adjuvants to halothane anesthesia (Carson-Domino method); format: in vivo; set-up: key: +: statistically significant increase; -: statistically significant decrease; NE: no effect; (): large but non-statistically significant change
Text: (§1) A modification of the method of Carson and Domino (Anesthesiology, 23:187-192, 1962) was used.
(§2) Groups of 10 female Swiss-Webster (A. R. Schmidt, Madison, Wisconsin) mice weighing between 16-24 grams were pre-treated with various doses or at various times with drug either oral or by intravenous injection of the tail veins. The mice were placed into 2 liter beakers (5 animals per beaker). The tops of the beakers were covered with Parafilm to which a gauze sponge had been attached. 0.1 cc of Penthrane or halothrane was injected through the Parafilm into the sponge at 5 minute intervals. […] These parameters were measured by the use of a stop watch. Statistical analysis (one-way analysis of variance) was done on the computer.
A number of benzopyran derivatives were screened in mice as adjuvants to the anesthetic actions of halothane. The Carson-Domino method (Anesthesiology 23:187, 1962) was used to measure anesthetic induction times and duration of anesthesia as evidenced by loss of righting reflex, as well as changes in the lethality of halothane.
Screening doses of 5 mg./kg. intravenously or 20 mg./kg. orally were used.

[2] = Determination of the Anesthetic ED50 and the LD50 of Pentothal; format: in vivo, female Swiss-Webster mice; conditions: mouse, in vivo; intravenous, mice, observed one week; read-out: LD50 (95% C.L.)
Description: (§3) An intravenous potency/lethality ratio for Pentothal was established in mice as follows
(§4) Determination of the Anesthetic ED50 and the LD50 of Pentothal
(§5) Groups of 10 female Swiss-Webster (A. R. Schmidt, Madison, Wisconsin) mice weighing between 16-25 grams were used for all studies. Intravenous injections were made into the tail veins. The drugs were prepared daily in Sterile Water (Abbott List No. 1590). […] LD50 's ED50 's, and their associated conficence limits were calculated by the method of Litchfield and Wilcoxon (1949).

mice [3] = test: as above; format: in vivo, female Swiss-Webster mice
Description: as §3, §4, §5

[4] = Solubility in water of the product; conditions: powder
mice [5] = test: Interaction of Benzopyranopyridines with Pentothal (loss of righting reflex, sleep); format: in vivo, female Swiss-Webster mice
Description: as §5
Interaction of Benzopyranopyridines with Pentothal
1. Animals pretreated with SP-106, 1 mg./kg. intravenously 0-30 minutes prior to Pentothal, 10 mg./kg. […] Longer pretreatment times (60 to 120 minutes) had no effect.

mice [6] = test: Interaction of Benzopyranopyridines with Penthrane (modified Carson and Domino method); format: in vivo, female Swiss-Webster mice; conditions: 1 to 5 mg./kg. 15 minutes prior to Penthrane vapors
Text: as §1, §2

mice [7] = test: Interaction of Benzopyranopyridines with Fluothane (halothane) (modified Carson and Domino method); format: in vivo, female Swiss-Webster mice; conditions: 1 to 5 mg./kg. 15 minutes prior to halothane vapors
Text: as §1, §2

[8] = 5 mg/kg i.v., pretreatment time 15 minutes
[9] = 20 mg/kg p.o., pretreatment time 1 hr
[10] = 20 mg/kg p.o., pretreatment time 2 hr
[11] = 20 mg/kg p.o., pretreatment time 3 hr
[12] = 20 mg/kg p.o., pretreatment time 4 hr

SMILES: C#CCN1CCC2=C(C1)c1c(OC(=O)CCCN3CCOCC3)cc(C(C)C(C)CCCCC)cc1OC2(C)C.Cl (centres unmarked) [SP-112, 5,5-Dimethyl-10-[4-(morpholino)butyryloxy]-8-(3-methyl-2-octyl)-2-(2-propynyl)-1,2,3,4-tetrahydro-5H-[1]-benzopyrano [3,4-d] pyridine hydrochloride]
- Duration (mice [1]; [8]): +
- Lethality (mice [1]; [8]): NE
- Onset (mice [1]; [8]): -

SMILES: C#CCN1CCC2=C(C1)c1c(OC(=O)CCCN3CCCCC3C)cc(C(C)C(C)CCCCC)cc1OC2(C)C (centres unmarked) [SP-159, 5,5-Dimethyl-10-[4-(2-methylpiperidino)butyryloxy]-8-(3-methyl-2-octyl)-2-(2-propynyl)-1,2,3,4-tetrahydro-5H-[1]benzopyrano [3,4-d] pyridine hydrochloride]
- Duration (mice [1]; [8]): +
- Lethality (mice [1]; [8]): NE
- Onset (mice [1]; [8]): -

SMILES: CCCCCc1cc(OC(=O)CCCN2CCOCC2)c2c(c1)OC(C)(C)C1CCC(C)=CC21 (centres unmarked) [SP-111]
- Duration (mice [1]; [8]): +
- Lethality (mice [1]; [8]): NE
- Onset (mice [1]; [8]): -

SMILES: CCCCCC(C)C(C)c1cc(OC(=O)CCCN2CCCCC2)c2c(c1)OC(C)(C)C1=C2CCC1 (centres unmarked) [SP-102]
- Duration (mice [1]; [8]): +
- Lethality (mice [1]; [8]): NE
- Onset (mice [1]; [8]): +

SMILES: CCCC(C)C1(CC)C(=O)NC(=S)NC1=O (centres unmarked) [Pentothal, sodium thiopental]
- LD50 at 168 h [2]: 76 mg/kg
- ED50 (mice [3]; Mus musculus, intravenous, mice, loss of righting reflex, read-out: Anesthetic ED50 (95% C.L.)): 20 mg/kg
- pH (mice [3]; Remarks: irritating (pH 11)): 11
- Remarks: duration (mice [3]; intravenous, mice): short duration
- Remarks: irritation (mice [3]; intravenous, mice): irritating
- Remarks: onset (mice [3]; intravenous, mice): Immediate onset
- Therapeutic Index (mice [3]; intravenous, mice): ~ 4

SMILES: CC1CCC2=C(C1)c1c(OC(=O)CCCN3CCCCC3)cc(C(C)CCCc3ccc(F)cc3)cc1OC2(C)C (centres unmarked) [Example 71]
- solubility in water [4]: soluble in water

SMILES: CCCCCC(C)C(C)c1cc(OC(=O)CCCN2CCCCC2)c2c(c1)OC(C)(C)C1=C2CCCS1 (centres unmarked) [SP-117]
- Lethality (mice [1]; [8]): NE
- Onset (mice [1]; [8]): +

SMILES: C#CCN1CCC2=C(C1)c1c(OC(=O)C(C)CCN3CCCCC3C)cc(C(C)C(C)CCCCC)cc1OC2(C)C (centres unmarked) [SP-204]
- Duration (mice [1]; [8]): +
- Lethality (mice [1]; [8]): -
- Onset (mice [1]; [8]): -

SMILES: C#CCN1CCC2=C(C1)c1c(O)cc(C(C)C(C)CCCCC)cc1OC2(C)C (centres unmarked) [SP-1]
- Duration (mice [1]; [9]): +
- Lethality (mice [1]; [9]): -
- Onset (mice [1]; [9]): +
- Duration (mice [1]; [10]): +
- Lethality (mice [1]; [10]): NE
- Onset (mice [1]; [10]): -
- Duration (mice [1]; [11]): +
- Lethality (mice [1]; [11]): NE
- Onset (mice [1]; [11]): -
- Duration (mice [1]; [12]): +
- Lethality (mice [1]; [12]): NE
- Onset (mice [1]; [12]): -

SMILES: C#CCN1CCC2=C(C1)c1c(OC(=O)C(C)CCN3CCCCC3)cc(C(C)C(C)CCCCC)cc1OC2(C)C (centres unmarked) [SP-178, 5,5-Dimethyl-10-[2-methyl-4-(piperidino)butyryloxy]-8-(3-methyl-2-octyl)-2-(2-propynyl)-1,2,3,4-tetrahydro-5H-[1]benzopyrano[3,4-d] pyridine dihydrochloride]
- Duration (mice [1]; [8]): +
- Lethality (mice [1]; [8]): NE
- Onset (mice [1]; [8]): -

SMILES: C#CCN1CCC2=C(C1)c1c(OC(=O)CCCN3CCCCC3)cc(C(C)C(C)CCCCC)cc1OC2(C)C.Cl (centres unmarked) [SP-106, 5,5-Dimethyl-8-(3-methyl-2-octyl)-10-[4-(piperidino)butyryloxy]-2-(2-propynyl)-1,2,3,4-tetrahydro-5H-[1]benzopyrano[3,4-d]pyridine hydrochloride]
- peak effect (mice [5]; 1 mg./kg. intravenously 0-30 minutes prior to Pentothal 10 mg./kg.): 5 min
- anesthesia (loss of righting reflex) (mice [5]; 1 mg./kg. intravenously 0-30 minutes prior to Pentothal 10 mg./kg. (non-anesthetic dose)): produced anesthesia
- sleep duration (mice [5]; 1 and 5 mg./kg. intravenously 15 minutes prior to anesthetic dose (30 mg./kg.) of Pentothal): significantly lengthened the sleep
- effect at longer pretreatment times (mice [5]; 60 to 120 minutes pretreatment, 1 mg./kg. intravenously, Pentothal 10 mg./kg.): had no effect
- duration of anesthesia (mice [6]): significantly lengthened the duration of anesthesia
- onset to sleep (mice [6]): signficantly shortened onset to sleep
- time to death (mice [6]): had no effect or lengthened time to death
- Onset (mice [7]): reduction of onset
- duration of anesthesia (mice [7]): increased the duration of anesthesia
- time to death (mice [7]): increased
- Duration (mice [1]; [8]): +
- Lethality (mice [1]; [8]): -
- Onset (mice [1]; [8]): -

SMILES: C#CCN1CCC2=C(C1)c1c(OC(=O)CCCN3CCCCC3)cc(C(C)CCCc3ccc(F)cc3)cc1OC2(C)C (centres unmarked) [SPA-109]
- Duration (mice [1]; [8]): +
- Lethality (mice [1]; [8]): NE
- Onset (mice [1]; [8]): -
